The record followed here is publication PMC12040169 (PLOS Biology, 2025).

SMILES strings stand for the structures.

This series in a line: in vitro. The conditions noted are these: human, hela cells, % viability.
Regarding `COCCN(Cc1ccc(OC)cc1)c1c(C)nc2ccc(C(=O)Nc3ccc(NC(C)=O)cc3)cn12` [CBK146111], the viability – broadly, a read-out of living cells in per cent, often relative to untreated cells – at 28.5 h, 10 µM is 99.3%.

For `CCS(=O)(=O)N1CCN(C(=O)c2ccc3nc(C)c(N(CCOC)Cc4ccc(OC)cc4)n3c2)CC1` [CBK146153], the viability at 28.5 h, 10 µM came out at 98.2%.

In the case of `CCc1nc2ccc(C(=O)N3CCCC(C(N)=O)C3)cn2c1N(CC)CCN(C)C` (stereo not shown) [CBK146185], the viability at 28.5 h, 10 µM amounted to 98.8%.

As to `CCc1nc2ccc(C(=O)N3CCN(C)CC3)cn2c1N(C)Cc1nccn1C` [CBK146299], the viability at 28.5 h, 10 µM worked out at 115%.

`CCc1nc2ccc(C(=O)N(C)C(C)C)cn2c1N(C)CCN1CCOCC1` [CBK146436]: the viability at 28.5 h, 10 µM came to 95.2%.

As for `CCOC(=O)N(C)c1c(CC)nc2ccc(C(=O)N(C)CCCN(C)C)cn12` [CBK146478], the viability at 28.5 h, 10 µM stood at 107%.

With `CCC(CC)C(=O)N(C)c1c(C)nc2ccc(C(=O)N(C)CCN(C)C)cn12` [CBK146491], the viability at 28.5 h, 10 µM worked out at 94.8%.

`CCC(CC)C(=O)N(C)c1c(C)nc2ccc(C(=O)NCCc3c[nH]c4ccccc34)cn12` [CBK146495]: the viability at 28.5 h, 10 µM came to 85.5%.

On to `CCC(CC)C(=O)N(C)c1c(C)nc2ccc(C(=O)NCc3ccc(OC)cc3)cn12` [CBK146501], for which the viability at 28.5 h, 10 µM was found to be 97.9%.

On to `CCC(CC)C(=O)N(C)c1c(C)nc2ccc(C(=O)N3CCN(S(=O)(=O)CC)CC3)cn12` [CBK146524], for which the viability at 28.5 h, 10 µM was determined as 92%.

With `CCC(CC)C(=O)N(C)c1c(C)nc2ccc(C(=O)Nc3cccc(NS(C)(=O)=O)c3)cn12` [CBK146526], the viability at 28.5 h, 10 µM is 105%.

Regarding `Cc1nc2ccc(C(=O)N(C)CCN(C)C)cn2c1N(C)C(=O)c1cccs1` [CBK146528], the viability at 28.5 h, 10 µM is 120%.

Take `Cc1nc2ccc(C(=O)NC3CCN(Cc4ccccc4)CC3)cn2c1N(C)C(=O)c1cccs1` [CBK146529]: the viability at 28.5 h, 10 µM was determined as 99.9%.

In the case of `CCc1nc2ccc(C(=O)NCCN3CCCC3)cn2c1N(C)C(=O)c1ccncc1` [CBK146655], the viability at 28.5 h, 10 µM was determined as 90.5%.

For the compound `CCc1nc2ccc(C(=O)N3CCN(C(C)=O)CC3)cn2c1N(C)Cc1ccc(Cl)cc1` [CBK146718], the viability at 28.5 h, 10 µM amounted to 105%.

Consider `Cc1nc2ccc(C(=O)NC3=NN(c4ccccc4)C(=O)C3)cn2c1N(C)C(=O)CCc1ccccc1` [CBK146817], for which the viability at 28.5 h, 10 µM turned out to be 89.8%.

Turning to `CCc1nc2ccc(C(=O)N3CCCCC3)cn2c1N(CC)Cc1ccc2c(c1)OCCO2` [CBK146903], the viability at 28.5 h, 10 µM amounted to 100%.

Consider `CC(=O)c1ccc(NC(=O)N(C)c2c(C)nc3ccc(C(=O)N4CCN(C(=O)c5ccco5)CC4)cn23)cc1` [CBK146930], for which the viability at 28.5 h, 10 µM turned out to be 92.8%.

On to `CCc1nc2ccc(C(=O)Nc3ccc(C(N)=O)cc3)cn2c1N(CC)Cc1cccc(Br)c1` [CBK146960], for which the viability at 28.5 h, 10 µM worked out at 92.9%.

Regarding `CCc1nc2ccc(C(=O)N(C)CCN(C)C)cn2c1N(CC)Cc1cccc(Br)c1` [CBK146962], the viability at 28.5 h, 10 µM came to 93.1%.

On to `CCc1nc2ccc(C(=O)Nc3ccc(NC(C)=O)cc3)cn2c1N(CC)Cc1ccc(OC)c(OC)c1` [CBK146994], for which the viability at 28.5 h, 10 µM was found to be 97.8%.

For `CCc1nc2ccc(C(=O)Nc3ccc(OC)c(OC)c3)cn2c1N(CC)C(=O)NCCc1ccccc1` [CBK147035], the viability at 28.5 h, 10 µM stood at 97.1%.

As for `CCCCC(=O)N(C)c1c(C)nc2ccc(C(=O)NCc3cccs3)cn12` [CBK147073], the viability at 28.5 h, 10 µM is 103%.

Take `CC(=O)Nc1ccc(CN(C)c2c(C)nc3ccc(C(=O)N(C)CCN(C)C)cn23)cc1` [CBK147107]: the viability at 28.5 h, 10 µM was 109%.

Regarding `Cc1nc2c(OCCN3C(=O)c4ccccc4C3=O)cccn2c1N(C)C(=O)C1CCCCC1` [CBK147157], the viability at 28.5 h, 10 µM is 95%.

`CCCCN(C)c1c(C)nc2c(OCC(=O)c3ccc(F)cc3)cccn12` [CBK147172]: the viability at 28.5 h, 10 µM amounted to 93.1%.

As for `CCCCN(C)c1c(C)nc2c(OCC3CCCCO3)cccn12` (stereo not shown) [CBK147180], the viability at 28.5 h, 10 µM turned out to be 103%.

Regarding `CCCCN(C)c1c(C)nc2c(OCc3ccc(S(=O)(=O)N(C)C)cc3)cccn12` [CBK147189], the viability at 28.5 h, 10 µM amounted to 96.2%.

`CCCCN(C)c1c(C)nc2c(Oc3ncccn3)cccn12` [CBK147190]: the viability at 28.5 h, 10 µM was found to be 90.9%.

For the compound `CCCCN(C)c1c(C)nc2c(Oc3nc4ccccc4s3)cccn12` [CBK147192], the viability at 28.5 h, 10 µM is 93.4%.

As to `Cc1nc2c(OCCOc3ccc(F)cc3)cccn2c1N(C)C(=O)CCC1CCCC1` [CBK147198], the viability at 28.5 h, 10 µM is 103%.

With `Cc1ccccc1COc1cccn2c(N(C)CC3CCCO3)c(C)nc12` (stereo not shown) [CBK147231], the viability at 28.5 h, 10 µM was 115%.

Consider `Cc1nc2c(OCCOc3ccccc3)cccn2c1N(C)CC1CC1` [CBK147272], for which the viability at 28.5 h, 10 µM came to 96.8%.

Consider `Cc1nc2c(OCc3ccc(F)c(F)c3)cccn2c1N(C)CC1CC1` [CBK147276], for which the viability at 28.5 h, 10 µM was 91.9%.

For `CCN(C)c1c(C)nc2c(OCc3cccc(Cl)c3)cccn12` [CBK147310], the viability at 28.5 h, 10 µM worked out at 100%.

Consider `CCN(C)c1c(C)nc2c(OCC(=O)N(C)C)cccn12` [CBK147316], for which the viability at 28.5 h, 10 µM was determined as 107%.

Take `Cc1nc2c(OCc3ccc(C#N)cc3)cccn2c1N(C)Cc1cccs1` [CBK147336]: the viability at 28.5 h, 10 µM was found to be 92%.

`CC(=O)Nc1ccc(CN(C)c2c(C)nc3c(OCC4CCCCC4)cccn23)cc1` [CBK147379]: the viability at 28.5 h, 10 µM stood at 93.5%.

In the case of `CC(=O)Nc1ccc(CN(C)c2c(C)nc3c(OCc4ccc(C(F)(F)F)cc4)cccn23)cc1` [CBK147380], the viability at 28.5 h, 10 µM was 94.5%.

`COc1ccc(CN(C)c2c(C)nc3c(OCCCN(C)S(C)(=O)=O)cccn23)cc1` [CBK147468]: the viability at 28.5 h, 10 µM was found to be 90%.

Consider `COc1ccc(CN(C)c2c(C)nc3c(OCC(=O)N4CCOCC4)cccn23)cc1` [CBK147469], for which the viability at 28.5 h, 10 µM was determined as 102%.

With `CCc1nc2c(OCc3ccc(Cl)cc3)cccn2c1N(C=O)CC(=O)N(C)C` [CBK147518], the viability at 28.5 h, 10 µM was found to be 96.4%.

On to `CCCCN(C=O)c1c(CC)nc2c(OCCOc3ccc(F)cc3)cccn12` [CBK147631], for which the viability at 28.5 h, 10 µM was found to be 92.7%.

`CCCCN(C=O)c1c(CC)nc2c(OCc3ccccc3C)cccn12` [CBK147639]: the viability at 28.5 h, 10 µM turned out to be 92.2%.

Consider `CCc1nc2c(OCCC3CCCCC3)cccn2c1N(C)C(=O)CC(C)C` [CBK147671], for which the viability at 28.5 h, 10 µM turned out to be 94.8%.

In the case of `CCc1nc2c(OCCOC)cccn2c1N(C)C(=O)c1ccccc1F` [CBK147722], the viability at 28.5 h, 10 µM amounted to 91.3%.

Consider `CCc1nc2c(OCc3ccccc3OC)cccn2c1N(C)C(=O)C(C)C` [CBK147763], for which the viability at 28.5 h, 10 µM amounted to 97%.

In the case of `CCCCC(=O)N(C)c1c(CC)nc2c(OCCn3cccc3)cccn12` [CBK147785], the viability at 28.5 h, 10 µM worked out at 102%.

As for `CCNC(=O)N(C)c1c(CC)nc2c(OCC3CCCCC3)cccn12` [CBK147795], the viability at 28.5 h, 10 µM stood at 108%.

Turning to `CCc1nc2c(Oc3nc4ccccc4s3)cccn2c1N(C=O)Cc1ccc(OC)cc1` [CBK147819], the viability at 28.5 h, 10 µM is 107%.

As for `CCc1nc2c(OCCOC)cccn2c1N(CCOC)C(C)=O` [CBK147845], the viability at 28.5 h, 10 µM is 97.4%.

As to `CCc1nc2c(OCc3ccc(S(C)(=O)=O)cc3)cccn2c1N(CCOC)C(C)=O` [CBK147846], the viability at 28.5 h, 10 µM came to 87.4%.

As for `O=C(NC(c1ccc(-c2ccccc2)cc1)c1cnccn1)C1CCN(CCCN2C(=O)C3CCCCC3C2=O)CC1` (stereo not shown) [CBK147856], the viability at 28.5 h, 10 µM was determined as 97.3%.

In the case of `CCc1nc2c(OCC3CCCCO3)cccn2c1N(C)C(=O)c1ccc2c(c1)OCO2` (stereo not shown) [CBK147860], the viability at 28.5 h, 10 µM was 82.9%.

Turning to `CCc1nc2c(OCc3ccccc3)cccn2c1N(C)C(=O)c1ccncc1` [CBK147876], the viability at 28.5 h, 10 µM was determined as 90%.

`Cc1nc2c(OCc3ccccc3)cccn2c1N(C)C(=O)C1CCCCC1` [CBK147884]: the viability at 28.5 h, 10 µM was 96.2%.

For the compound `CCc1nc2c(OCc3ccccc3)cccn2c1N(Cc1ccc(OC)cc1)C(C)=O` [CBK147887], the viability at 28.5 h, 10 µM came to 89.8%.

For `CCc1nc2c(OCc3ccccc3)cccn2c1N(C)C(=O)Nc1ccccc1OC` [CBK147890], the viability at 28.5 h, 10 µM turned out to be 98.7%.

Take `COc1ccccc1C(NC(=O)C1CCN(CCc2c[nH]c3ccccc23)CC1)c1ccccn1` (stereo not shown) [CBK147923]: the viability at 28.5 h, 10 µM was 87.8%.

Take `COc1ccc(OCCN2CCC(C(=O)NC(c3ccccn3)c3ccccc3OC)CC2)cc1` (stereo not shown) [CBK147938]: the viability at 28.5 h, 10 µM came to 86.3%.

As for `O=C(NC(c1ccc(Cl)cc1)c1ccsc1)C1CCN(CCOc2ccccc2)CC1` (stereo not shown) [CBK147951], the viability at 28.5 h, 10 µM came to 101%.

With `O=C(NC(c1ccc(Cl)cc1)c1ccsc1)C1CCN(CCc2ccc(F)cc2)CC1` (stereo not shown) [CBK147976], the viability at 28.5 h, 10 µM worked out at 88.4%.

Consider `O=C(NC(c1ccc(-c2ccccc2)cc1)c1cnccn1)C1CCN(CCOc2ccc3ccccc3c2)CC1` (stereo not shown) [CBK147982], for which the viability at 28.5 h, 10 µM came out at 93.6%.

As to `O=C(NC(c1ccc(-c2ccccc2)cc1)c1cnccn1)C1CCN(C/C=C/c2ccccc2)CC1` (stereo not shown) [CBK147984], the viability at 28.5 h, 10 µM turned out to be 104%.

In the case of `CC(C)CN1CCC(C(=O)NC(c2ccc(Cl)cc2)c2cnccn2)CC1` (stereo not shown) [CBK148026], the viability at 28.5 h, 10 µM worked out at 96.6%.

For the compound `CC(NC(=O)C1CCN(C2Cc3ccccc3C2)CC1)c1ccccc1` (stereo not shown) [CBK148031], the viability at 28.5 h, 10 µM stood at 95.7%.

`CC(NC(=O)C1CCN(Cc2cccnc2)CC1)c1ccc(F)cc1` (stereo not shown) [CBK148032]: the viability at 28.5 h, 10 µM is 94.4%.

As to `CC(NC(=O)C1CCN(Cc2ncc[nH]2)CC1)c1ccc(F)cc1` (stereo not shown) [CBK148037], the viability at 28.5 h, 10 µM is 97%.

On to `CC(NC(=O)C1CCN(Cc2cccs2)CC1)c1ccc(F)cc1` (stereo not shown) [CBK148041], for which the viability at 28.5 h, 10 µM amounted to 101%.

In the case of `COc1cc(/C=C/CN2CCC(C(=O)NC(C)c3ccc(F)cc3)CC2)ccc1OC(C)=O` (stereo not shown) [CBK148061], the viability at 28.5 h, 10 µM stood at 90.1%.

On to `COc1cc(OC)nc(C(NC(=O)C2CCN(CCN3C(=O)c4ccccc4C3=O)CC2)c2ccc(F)cc2)n1` (stereo not shown) [CBK148083], for which the viability at 28.5 h, 10 µM was found to be 103%.

Regarding `CCOCCN1CCC(C(=O)NC(c2ccc(F)cc2)c2nc(OC)cc(OC)n2)CC1` (stereo not shown) [CBK148087], the viability at 28.5 h, 10 µM was 98%.

With `COc1cccc(CCN2CCC(C(=O)NC(c3ccc(F)cc3)c3nc(OC)cc(OC)n3)CC2)c1` (stereo not shown) [CBK148089], the viability at 28.5 h, 10 µM is 92.2%.
